Measured values reported in publication PMC7340446, “Optimization of PTH/PTHrP Hybrid Peptides to Derive a Long‐Acting PTH Analog (LA‐PTH)” (JBMR Plus, 2020).
Where no end group is shown, it is not given here.

How the values were obtained:
[1] = target: T1, human PTHR1 (RG conformation) (Homo sapiens, UniProt Q03431); assay: Competition binding to the RG conformation of PTHR1
T1 construct: expressed in transfected cells; host or cells: COS-7 cells (transient co-transfection; membranes)
T1 sequence (Q03431 27-593): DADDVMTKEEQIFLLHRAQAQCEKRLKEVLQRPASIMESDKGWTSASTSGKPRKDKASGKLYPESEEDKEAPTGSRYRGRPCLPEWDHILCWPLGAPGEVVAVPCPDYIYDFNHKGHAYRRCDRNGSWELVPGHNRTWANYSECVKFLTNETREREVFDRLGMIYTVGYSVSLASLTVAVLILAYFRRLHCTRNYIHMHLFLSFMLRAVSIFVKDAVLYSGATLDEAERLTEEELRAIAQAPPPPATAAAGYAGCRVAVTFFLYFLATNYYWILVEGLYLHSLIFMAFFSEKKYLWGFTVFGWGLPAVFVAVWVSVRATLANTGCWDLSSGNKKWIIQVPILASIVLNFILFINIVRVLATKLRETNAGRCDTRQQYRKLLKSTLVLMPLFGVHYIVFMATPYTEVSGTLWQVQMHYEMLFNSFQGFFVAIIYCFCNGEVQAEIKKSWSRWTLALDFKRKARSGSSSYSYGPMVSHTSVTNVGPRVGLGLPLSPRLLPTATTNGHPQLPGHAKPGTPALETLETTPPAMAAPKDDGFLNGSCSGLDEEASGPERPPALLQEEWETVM

[2] = Peptide solubility in aqueous buffers of neutral pH; assay type: physicochemical; conditions: aqueous buffers at neutral pH; approximate

For “AVAEIQLMHQRAKWIQDLRRRFFLHHLIAEIHTAEI [M‐PTH(1‐14)/PTHrP(15‐36), [Ala^1,3,12,Gln^10,Arg^11,Trp^14]‐PTH(1‐14)/PTHrP(15–36)]”, the IC50 [1] was 670 ± 50 pM and the “Concentration at which the peptide is poorly soluble” value [2] was greater than 300 µg/mL.
